Data taken from ChEMBL document CHEMBL4507276 (2021).

Assays:
[1] = biological target: Tyrosine-protein kinase ABL1 (Homo sapiens) (UniProt P00519); settings: Compound concentration 1000.0 nM
[2] = biological target: Melatonin receptor type 1A (Homo sapiens) (UniProt P48039); test: MT1/H Eurofins-Panlabs selectivity data (BI); settings: Compound concentration 10.0 uM
[3] = test system: Tyrosine-protein kinase ABL1 (Homo sapiens), P00519 [G250E]; test: ABL1 G250E Invitrogen selectivity data (BI); settings: Compound concentration 3.0 uM
[4] = biological target: Cyclin-dependent kinase 1/cyclin B (Homo sapiens) (UniProt P06493+P14635+Q8WWL7+O95067); test: CDK1/CYCLINB Invitrogen selectivity data (BI); format: protein-complex assay; settings: Compound concentration 3.0 uM
[5] = biological target: T1, Ephrin type-B receptor 2 (Homo sapiens) (UniProt P29323); test: EPHB2 Invitrogen selectivity data (BI); settings: Compound concentration 3.0 uM
T1 sequence (whole entry): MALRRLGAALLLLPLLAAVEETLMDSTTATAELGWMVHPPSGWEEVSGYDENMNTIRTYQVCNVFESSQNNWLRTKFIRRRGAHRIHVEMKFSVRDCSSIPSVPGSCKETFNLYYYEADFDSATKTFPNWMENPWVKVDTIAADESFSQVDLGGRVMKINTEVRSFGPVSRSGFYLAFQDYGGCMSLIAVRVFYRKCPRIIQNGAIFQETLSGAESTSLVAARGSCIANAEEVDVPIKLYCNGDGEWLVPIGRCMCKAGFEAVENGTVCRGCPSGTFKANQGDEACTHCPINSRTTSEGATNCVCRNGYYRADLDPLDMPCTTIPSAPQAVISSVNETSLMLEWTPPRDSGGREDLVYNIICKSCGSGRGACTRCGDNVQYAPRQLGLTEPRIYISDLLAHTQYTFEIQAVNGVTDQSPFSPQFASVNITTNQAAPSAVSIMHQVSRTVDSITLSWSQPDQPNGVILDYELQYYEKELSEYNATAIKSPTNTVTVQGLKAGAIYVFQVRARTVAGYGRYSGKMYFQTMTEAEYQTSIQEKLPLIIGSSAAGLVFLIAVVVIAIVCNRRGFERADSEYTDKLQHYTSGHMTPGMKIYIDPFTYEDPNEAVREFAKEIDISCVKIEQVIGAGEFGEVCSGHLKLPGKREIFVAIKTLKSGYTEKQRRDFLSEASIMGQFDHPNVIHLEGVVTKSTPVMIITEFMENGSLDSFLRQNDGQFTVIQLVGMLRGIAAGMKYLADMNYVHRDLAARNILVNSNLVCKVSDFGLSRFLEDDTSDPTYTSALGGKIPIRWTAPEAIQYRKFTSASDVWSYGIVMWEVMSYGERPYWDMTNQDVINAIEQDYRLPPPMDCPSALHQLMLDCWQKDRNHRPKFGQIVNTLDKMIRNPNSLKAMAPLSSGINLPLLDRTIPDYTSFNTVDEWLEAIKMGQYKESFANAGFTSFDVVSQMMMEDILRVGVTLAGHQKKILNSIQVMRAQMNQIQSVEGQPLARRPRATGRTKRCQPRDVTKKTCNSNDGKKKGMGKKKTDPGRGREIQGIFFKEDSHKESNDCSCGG

[6] = biological target: Mitogen-activated protein kinase 1 (Homo sapiens) (UniProt P28482); test: MAPK1 Invitrogen selectivity data (BI); settings: Compound concentration 3.0 uM
Sequence of Mitogen-activated protein kinase 1 (Homo sapiens) (P28482 whole entry): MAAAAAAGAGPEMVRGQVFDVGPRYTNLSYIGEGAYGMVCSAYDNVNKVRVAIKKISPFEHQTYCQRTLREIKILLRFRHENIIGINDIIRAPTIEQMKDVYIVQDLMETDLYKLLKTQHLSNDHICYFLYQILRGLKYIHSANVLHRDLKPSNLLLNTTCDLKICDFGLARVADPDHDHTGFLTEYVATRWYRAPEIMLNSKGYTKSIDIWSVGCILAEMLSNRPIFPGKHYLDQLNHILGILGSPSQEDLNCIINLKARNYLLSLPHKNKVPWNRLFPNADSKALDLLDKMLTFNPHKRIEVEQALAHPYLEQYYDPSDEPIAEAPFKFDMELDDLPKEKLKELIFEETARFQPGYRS

[7] = biological target: Mitogen-activated protein kinase 14 (Homo sapiens) (UniProt Q16539); test: MAPK14 Invitrogen selectivity data (BI); settings: Compound concentration 3.0 uM
Sequence of Mitogen-activated protein kinase 14 (Homo sapiens) (Q16539 whole entry): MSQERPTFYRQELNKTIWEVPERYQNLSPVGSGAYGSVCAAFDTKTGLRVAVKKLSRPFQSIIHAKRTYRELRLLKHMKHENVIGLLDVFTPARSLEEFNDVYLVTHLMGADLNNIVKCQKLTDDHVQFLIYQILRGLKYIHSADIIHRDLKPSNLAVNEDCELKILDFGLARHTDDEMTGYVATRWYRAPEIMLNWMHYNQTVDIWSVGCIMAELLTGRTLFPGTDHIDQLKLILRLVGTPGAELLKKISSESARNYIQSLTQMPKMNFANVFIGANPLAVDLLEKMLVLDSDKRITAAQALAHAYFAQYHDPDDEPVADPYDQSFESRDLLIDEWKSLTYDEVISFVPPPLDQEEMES

[8] = biological target: Serine/threonine-protein kinase MARK1 (Homo sapiens) (UniProt Q9P0L2); test: MARK1 Invitrogen selectivity data (BI); settings: Compound concentration 3.0 uM
Sequence of Serine/threonine-protein kinase MARK1 (Homo sapiens) (Q9P0L2 whole entry, looked up, canonical isoform): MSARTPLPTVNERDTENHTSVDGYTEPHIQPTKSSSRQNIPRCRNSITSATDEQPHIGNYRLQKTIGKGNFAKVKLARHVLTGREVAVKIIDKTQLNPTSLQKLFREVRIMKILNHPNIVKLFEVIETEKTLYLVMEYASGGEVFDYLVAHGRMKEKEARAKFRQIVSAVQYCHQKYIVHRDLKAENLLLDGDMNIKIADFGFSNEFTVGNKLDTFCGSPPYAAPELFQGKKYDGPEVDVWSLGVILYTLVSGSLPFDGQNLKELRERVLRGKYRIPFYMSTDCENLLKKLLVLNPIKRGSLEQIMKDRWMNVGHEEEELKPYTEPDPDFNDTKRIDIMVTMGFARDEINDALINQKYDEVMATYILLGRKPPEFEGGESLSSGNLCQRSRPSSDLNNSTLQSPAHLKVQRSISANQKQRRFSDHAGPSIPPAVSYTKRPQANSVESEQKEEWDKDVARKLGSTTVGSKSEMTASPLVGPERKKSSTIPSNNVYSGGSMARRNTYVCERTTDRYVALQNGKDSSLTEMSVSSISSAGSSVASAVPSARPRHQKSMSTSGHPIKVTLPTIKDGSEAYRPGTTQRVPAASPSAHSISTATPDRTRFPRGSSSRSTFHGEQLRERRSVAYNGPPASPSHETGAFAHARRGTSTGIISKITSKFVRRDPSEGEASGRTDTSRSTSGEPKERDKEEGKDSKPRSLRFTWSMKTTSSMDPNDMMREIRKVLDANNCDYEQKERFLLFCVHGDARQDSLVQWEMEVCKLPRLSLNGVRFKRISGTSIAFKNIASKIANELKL

[9] = biological target: Phosphatidylinositol 4,5-bisphosphate 3-kinase catalytic subunit gamma isoform (Homo sapiens) (UniProt P48736); test: PIK3CG Invitrogen selectivity data (BI); settings: Compound concentration 3.0 uM
Sequence of Phosphatidylinositol 4,5-bisphosphate 3-kinase catalytic subunit gamma isoform (Homo sapiens) (P48736 whole entry, looked up, canonical isoform): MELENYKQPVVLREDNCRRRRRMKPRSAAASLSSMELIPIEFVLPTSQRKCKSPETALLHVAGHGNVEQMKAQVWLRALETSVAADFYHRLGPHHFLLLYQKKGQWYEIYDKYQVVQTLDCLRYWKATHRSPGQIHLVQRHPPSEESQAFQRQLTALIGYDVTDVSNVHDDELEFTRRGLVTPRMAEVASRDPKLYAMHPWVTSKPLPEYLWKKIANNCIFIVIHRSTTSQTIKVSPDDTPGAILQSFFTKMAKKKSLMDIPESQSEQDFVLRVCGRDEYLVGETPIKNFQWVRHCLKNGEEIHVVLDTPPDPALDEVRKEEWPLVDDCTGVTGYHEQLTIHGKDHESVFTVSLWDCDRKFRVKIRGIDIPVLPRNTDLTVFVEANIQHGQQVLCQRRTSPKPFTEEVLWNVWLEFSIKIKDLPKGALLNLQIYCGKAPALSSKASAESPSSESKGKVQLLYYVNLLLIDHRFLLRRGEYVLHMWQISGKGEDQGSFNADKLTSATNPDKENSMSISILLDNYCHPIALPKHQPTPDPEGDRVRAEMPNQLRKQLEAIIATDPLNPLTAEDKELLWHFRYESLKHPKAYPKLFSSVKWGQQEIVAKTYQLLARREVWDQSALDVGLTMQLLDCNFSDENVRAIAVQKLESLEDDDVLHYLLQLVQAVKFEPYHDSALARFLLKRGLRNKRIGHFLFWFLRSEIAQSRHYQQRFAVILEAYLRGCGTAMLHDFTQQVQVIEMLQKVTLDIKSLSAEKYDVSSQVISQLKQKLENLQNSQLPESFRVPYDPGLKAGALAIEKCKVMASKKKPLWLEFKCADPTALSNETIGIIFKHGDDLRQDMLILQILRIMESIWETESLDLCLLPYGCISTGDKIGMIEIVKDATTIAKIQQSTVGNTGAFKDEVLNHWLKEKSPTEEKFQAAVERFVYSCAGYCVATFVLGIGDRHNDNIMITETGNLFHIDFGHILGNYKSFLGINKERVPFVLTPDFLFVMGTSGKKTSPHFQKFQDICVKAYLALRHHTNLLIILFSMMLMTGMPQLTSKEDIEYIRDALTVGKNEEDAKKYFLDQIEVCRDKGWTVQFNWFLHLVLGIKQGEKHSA

[10] = biological target: Serine/threonine-protein kinase pim-2 (Homo sapiens) (UniProt Q9P1W9); test: PIM2 Invitrogen selectivity data (BI); settings: Compound concentration 3.0 uM
Sequence of Serine/threonine-protein kinase pim-2 (Homo sapiens) (Q9P1W9 whole entry, looked up): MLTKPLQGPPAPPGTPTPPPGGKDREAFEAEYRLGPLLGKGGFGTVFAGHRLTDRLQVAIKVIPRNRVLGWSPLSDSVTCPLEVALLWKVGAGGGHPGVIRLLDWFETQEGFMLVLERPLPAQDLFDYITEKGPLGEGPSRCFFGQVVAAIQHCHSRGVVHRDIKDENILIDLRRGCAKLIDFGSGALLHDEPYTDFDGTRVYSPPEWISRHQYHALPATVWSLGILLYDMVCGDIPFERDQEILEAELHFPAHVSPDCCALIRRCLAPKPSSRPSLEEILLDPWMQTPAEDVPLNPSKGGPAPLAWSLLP

[11] = biological target: T2, Protein kinase C iota type (Homo sapiens) (UniProt P41743); test: PRKCI Invitrogen selectivity data (BI); settings: Compound concentration 3.0 uM
T2 sequence (whole entry): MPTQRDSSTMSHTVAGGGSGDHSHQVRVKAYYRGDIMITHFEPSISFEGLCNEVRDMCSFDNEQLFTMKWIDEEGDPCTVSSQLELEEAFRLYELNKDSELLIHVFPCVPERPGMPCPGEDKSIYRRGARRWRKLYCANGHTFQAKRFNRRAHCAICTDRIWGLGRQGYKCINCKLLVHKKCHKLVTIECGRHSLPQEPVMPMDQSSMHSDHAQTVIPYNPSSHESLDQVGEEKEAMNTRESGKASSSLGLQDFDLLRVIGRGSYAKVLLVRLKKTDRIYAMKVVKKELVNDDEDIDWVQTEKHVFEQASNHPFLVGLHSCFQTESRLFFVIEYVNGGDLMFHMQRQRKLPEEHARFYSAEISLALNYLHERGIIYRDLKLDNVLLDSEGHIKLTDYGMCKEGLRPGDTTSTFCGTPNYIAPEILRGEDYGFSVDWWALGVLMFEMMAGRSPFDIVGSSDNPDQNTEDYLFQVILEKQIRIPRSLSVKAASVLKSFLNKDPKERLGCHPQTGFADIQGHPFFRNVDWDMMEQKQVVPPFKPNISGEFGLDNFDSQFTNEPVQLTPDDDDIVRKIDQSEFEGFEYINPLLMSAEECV

[12] = biological target: Proto-oncogene tyrosine-protein kinase Src (Homo sapiens) (UniProt P12931); test: SRC N1 Invitrogen selectivity data (BI); settings: Compound concentration 3.0 uM
Sequence of Proto-oncogene tyrosine-protein kinase Src (Homo sapiens) (P12931 2-536 limits assumed): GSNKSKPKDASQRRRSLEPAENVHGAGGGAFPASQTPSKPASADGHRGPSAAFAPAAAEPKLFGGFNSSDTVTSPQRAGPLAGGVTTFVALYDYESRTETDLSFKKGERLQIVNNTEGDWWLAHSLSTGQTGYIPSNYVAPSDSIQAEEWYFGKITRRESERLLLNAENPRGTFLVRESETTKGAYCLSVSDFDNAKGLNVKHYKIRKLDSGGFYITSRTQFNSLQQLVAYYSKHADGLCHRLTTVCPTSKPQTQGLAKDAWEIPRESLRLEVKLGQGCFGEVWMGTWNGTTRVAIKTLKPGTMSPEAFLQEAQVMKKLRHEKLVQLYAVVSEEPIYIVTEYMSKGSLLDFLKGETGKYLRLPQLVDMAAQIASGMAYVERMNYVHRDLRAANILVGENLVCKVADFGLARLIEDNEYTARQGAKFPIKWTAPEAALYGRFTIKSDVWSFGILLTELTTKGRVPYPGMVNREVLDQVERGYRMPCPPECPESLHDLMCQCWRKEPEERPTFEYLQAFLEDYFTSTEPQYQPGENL

[13] = biological target: Tyrosine-protein kinase SYK (Homo sapiens) (UniProt P43405); test: SYK Invitrogen selectivity data (BI); settings: Compound concentration 3.0 uM
[14] = biological target: Alpha-1B adrenergic receptor (Rattus norvegicus) (UniProt P15823); test: ALPHA1B/R Eurofins-Panlabs selectivity data (BI); settings: Compound concentration 10.0 uM
Sequence of Alpha-1B adrenergic receptor (Rattus norvegicus) (P15823 whole entry, looked up): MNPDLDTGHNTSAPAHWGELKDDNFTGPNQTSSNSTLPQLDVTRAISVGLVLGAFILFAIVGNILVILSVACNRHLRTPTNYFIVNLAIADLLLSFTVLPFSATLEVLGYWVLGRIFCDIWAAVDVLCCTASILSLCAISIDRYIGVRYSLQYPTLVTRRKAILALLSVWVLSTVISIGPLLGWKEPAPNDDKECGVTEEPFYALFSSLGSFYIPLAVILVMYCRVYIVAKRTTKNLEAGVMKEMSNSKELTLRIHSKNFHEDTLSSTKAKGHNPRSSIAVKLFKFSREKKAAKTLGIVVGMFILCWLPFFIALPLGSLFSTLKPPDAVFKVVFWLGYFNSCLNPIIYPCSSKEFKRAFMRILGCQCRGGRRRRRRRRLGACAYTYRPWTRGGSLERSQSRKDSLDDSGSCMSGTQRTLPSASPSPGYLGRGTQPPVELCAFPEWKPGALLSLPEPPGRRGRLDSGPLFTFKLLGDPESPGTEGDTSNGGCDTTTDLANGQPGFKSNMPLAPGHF

Measured: residual activity

Sequence of Melatonin receptor type 1A (Homo sapiens) (P48039 whole entry): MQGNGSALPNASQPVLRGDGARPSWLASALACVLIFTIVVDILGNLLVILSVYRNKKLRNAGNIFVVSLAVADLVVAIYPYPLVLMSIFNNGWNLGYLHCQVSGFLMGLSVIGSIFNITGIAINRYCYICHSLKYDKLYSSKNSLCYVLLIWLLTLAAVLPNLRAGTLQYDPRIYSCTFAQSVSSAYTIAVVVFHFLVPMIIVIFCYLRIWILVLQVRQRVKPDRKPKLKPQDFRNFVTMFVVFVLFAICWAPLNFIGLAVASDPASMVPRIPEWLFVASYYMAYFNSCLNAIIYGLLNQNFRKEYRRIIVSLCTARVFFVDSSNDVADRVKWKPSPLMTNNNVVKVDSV

CN(C)C(=O)Cn1cc(-c2nc(C3(c4ccc(-c5cnc(N)nc5)cc4)CC3)no2)cn1 [BI 0153]
inactive: [1] 100%

CN(C)C(=O)Cn1cc(-c2nc([C@@](C)(c3ccc(-c4cnc(N)nc4)cc3)C3CC3)no2)cn1 [BI 665915]
inactive: [2] 96% | [3] 80% | [4] 99% | [5] 93.5% | [6] 100% | [7] 107% | [8] 98% | [9] 104% | [10] 101% | [11] 97% | [12] 85% | [13] 90% | [14] 96%
